Assay results taken from patent US20250275975A1, “Methods of Treating Neuropathies” (Athira Pharma, Inc., priority 2023, published 2025).

What was measured:
Format in all cases: in vivo, Sprague Dawley rats
STZ DNP rats [1] = test: Mechanical allodynia rescue assay (Von Frey paw withdrawal threshold), Example B1; set-up: key to Efficacy: rescue of mechanical allodynia behavior as measured by paw withdrawal threshold: NS indicates treatment did not significantly affect paw withdrawal threshold vs disease control.; + indicates p < 0.05 vs disease control.; ++ indicates p < 0.01 vs disease control.; +++ indicates p < 0.001 vs disease control; settings: for Efficacy: rescue of mechanical allodynia behavior as measured by paw withdrawal threshold: study day 28 after 14 days of treatment, p vs disease control
Text: Hyperglycemic rats consistently develop neuropathic pain-associated behaviors including mechanical allodynia. Allodynia refers to a type of neuropathic pain characterized by increased sensitivity to stimuli that are not normally painful. Mechanical allodynia is quantified in rats by determination of the force required to induce a withdrawal of the paw and is negatively associated with allodynia such that, the lower the force required to induce paw withdrawal, the greater the pain behavior.
(§1) A series of studies were performed to determine the ability of HGF/MET positive modulator compounds to reduce the mechanical allodynia pain behaviors in hyperglycemic rats. A single dose of STZ (55 mg/kg via intravenous (IV)) was administered to induce a Type I diabetic hyperglycemia in male Sprague Dawley rats. Hyperglycemia was confirmed 4 days after STZ administration, with blood glucose levels above 200 mg/dL considered successful model induction. 14 days after disease induction, test compound treatment was initiated and continued as daily compound administration over the remaining course of the study. Route and dose for each compound were determined by pharmacokinetic and distribution modelling. Control groups included animals with no diabetic induction (Sham control), animals with diabetes but treated only with formulation vehicle (DNP (diabetic peripheral neuropathy) control), and disease animals treated with pregabalin (30 mg/kg via PO), which is known to reduce neuropathic pain behaviors.
(§2) Changes to neuropathic pain behaviors were assessed after 14 days of compound treatment on study day 28. Mechanical allodynia was tested by placing each animal on an elevated wire grid and stimulating the plantar surface of the right rear paw with a series of filaments corresponding to increasing orders of force, reaching a maximum force of 60 grams (Aesthesio manual Von Frey filaments). The force of the filament that causes paw withdrawal was considered the paw withdrawal threshold in grams. Pain sensitivity in response to thermal hyperalgesia was determined by using hot plate method and represented as paw withdrawal latency (PWL). Rats were placed on the hot plate (52.5° C.), and the time taken to show the nocifensive behavior (either licking or jumping) of any of their paws was recorded. Statistical comparison of treatment groups to DNP control groups was performed by one-way ANOVA followed by Dunnett's multiple comparisons test.

STZ DNP rats [2] = test: Thermal hyperalgesia rescue assay (hot plate paw withdrawal latency), Example B1; set-up: key to Efficacy: rescue of thermal hyperalgesia behavior as measured by paw withdrawal latency: NS indicates treatment did not significantly affect paw withdrawal latency vs disease control.; + indicates p < 0.05 vs disease control.; ++ indicates p < 0.01 vs disease control.; +++ indicates p < 0.001 vs disease control; settings: for Efficacy: rescue of thermal hyperalgesia behavior as measured by paw withdrawal latency: study day 28 after 14 days of treatment, hot plate 52.5° C., p vs disease control
Description: as §1, §2

[3] = system: rat model of STZ-induced DNP; test: Comparison of dosing schedules, mechanical allodynia (von Frey filaments), Example B2; set-up: key to Efficacy: rescue of mechanical allodynia behavior as measured by paw withdrawal threshold: NS indicates treatment did not significantly affect paw withdrawal threshold vs DNP control.; + indicates p < 0.05 vs DNP control.; ++ indicates p < 0.01 vs DNP control.; +++ indicates p < 0.001 vs DNP control; settings: for Efficacy: rescue of mechanical allodynia behavior as measured by paw withdrawal threshold: p vs DNP control
Description: (§3) An additional series of studies were performed to compare the ability of Compound 1a to reduce mechanical allodynia and thermal hyperalgesia pain behaviors in hyperglycemic rats dosed once or twice daily. Briefly, a single dose of STZ (55 mg/kg via intravenous (IV)) was administered to induce a Type I diabetic hyperglycemia in male Sprague Dawley rats. Hyperglycemia was confirmed 4 days after STZ administration, with blood glucose levels above 200 mg/dL considered successful model induction. Development of a painful phenotype was confirmed 14 days after STZ administration through assessments of both mechanical allodynia and thermal hyperalgesia. Starting 15 days after disease induction, Compound 1a (8 mg/kg) was orally administered once (QD) or twice (Q12h) daily from day 15 to day 41. Control groups included animals with no diabetic induction (Sham control) and animals with diabetes but treated only with formulation vehicle (DNP [diabetic peripheral neuropathy] control).
(§4) Mechanical allodynia and thermal hyperalgesia were assessed as described in Example B1. Briefly, on study days 21, 27, 35, and 41, mechanical allodynia and thermal hyperalgesia were assessed one-hour post-dose using von Frey filaments (1.4, 4, 10, 15, 26, 48, and 60 g) and the hot plate test (52.5° C.), respectively. Pain level was also measured on day 48 following a 7-day compound-free washout to evaluate the persistence of the effects of administration of Compound 1a.

[4] = system: rat model of STZ-induced DNP; test: Comparison of dosing schedules, thermal hyperalgesia (hot plate test), Example B2; set-up: key to Efficacy: rescue of thermal hyperalgesia behavior as measured by paw withdrawal latency: NS indicates treatment did not significantly affect paw withdrawal latency vs DNP control.; + indicates p < 0.05 vs DNP control.; ++ indicates p < 0.01 vs DNP control.; +++ indicates p < 0.001 vs DNP control; settings: for Efficacy: rescue of thermal hyperalgesia behavior as measured by paw withdrawal latency: p vs DNP control
Description: as §3, §4

[5] = 8 mg/kg PO Q12 h from day 15 to day 41, Day 21, one-hour post-dose
[6] = 8 mg/kg PO Q12 h from day 15 to day 41, Day 27, one-hour post-dose
[7] = 8 mg/kg PO Q12 h from day 15 to day 41, Day 48, after 7-day compound-free washout
[8] = 8 mg/kg PO QD from day 15 to day 41, Day 21, one-hour post-dose
[9] = 8 mg/kg PO QD from day 15 to day 41, Day 27, one-hour post-dose
[10] = 8 mg/kg PO QD from day 15 to day 41, Day 48, after 7-day compound-free washout
[11] = 8 mg/kg PO QD or Q12h, starting on day 27
[12] = day 48, after 7-day compound-free washout

Compound: CCC(C)CN1CC2N(C(=O)c3ccc(C(F)(F)F)cc3)CCC(=O)N2[C@@H](C)C1=O (some centres unmarked) [Compound 1a]
- Efficacy: rescue of mechanical allodynia behavior as measured by paw withdrawal threshold (STZ DNP rats [1]; 0.05 mg/kg PO daily): NS
- Efficacy: rescue of mechanical allodynia behavior as measured by paw withdrawal threshold (STZ DNP rats [1]; 0.2 mg/kg PO daily): NS
- Efficacy: rescue of mechanical allodynia behavior as measured by paw withdrawal threshold (STZ DNP rats [1]; 2 mg/kg PO daily): +++ (+++ indicates p < 0.001 vs disease control.)
- Efficacy: rescue of mechanical allodynia behavior as measured by paw withdrawal threshold (STZ DNP rats [1]; 8 mg/kg PO daily): +++ (+++ indicates p < 0.001 vs disease control.)
- rescue of the mechanical allodynia behavior as measured by paw withdrawal threshold (STZ DNP rats [1]; STZ DNP rats): significant rescue
- Efficacy: rescue of thermal hyperalgesia behavior as measured by paw withdrawal latency (STZ DNP rats [2]; 0.05 mg/kg PO daily): NS
- Efficacy: rescue of thermal hyperalgesia behavior as measured by paw withdrawal latency (STZ DNP rats [2]; 0.2 mg/kg PO daily): NS
- Efficacy: rescue of thermal hyperalgesia behavior as measured by paw withdrawal latency (STZ DNP rats [2]; 2 mg/kg PO daily): +++ (+++ indicates p < 0.001 vs disease control.)
- Efficacy: rescue of thermal hyperalgesia behavior as measured by paw withdrawal latency (STZ DNP rats [2]; 8 mg/kg PO daily): +++ (+++ indicates p < 0.001 vs disease control.)
- rescue of thermal allodynia behavior as measured by paw withdrawal latency (STZ DNP rats [2]; STZ DNP rats): significant rescue
- Efficacy: rescue of mechanical allodynia behavior as measured by paw withdrawal threshold [3, 5]: NS
- Efficacy: rescue of mechanical allodynia behavior as measured by paw withdrawal threshold [3, 6]: ++ (++ indicates p < 0.01 vs DNP control.)
- Efficacy: rescue of mechanical allodynia behavior as measured by paw withdrawal threshold [3, 7]: +++ (+++ indicates p < 0.001 vs DNP control.)
- Efficacy: rescue of mechanical allodynia behavior as measured by paw withdrawal threshold [3, 8]: NS
- Efficacy: rescue of mechanical allodynia behavior as measured by paw withdrawal threshold [3, 9]: ++ (++ indicates p < 0.01 vs DNP control.)
- Efficacy: rescue of mechanical allodynia behavior as measured by paw withdrawal threshold [3, 10]: NS
- reversal of the increase in pain-related behaviors, mechanical allodynia [3, 11]: effectively reversed
- persistence of pain-reducing effects, mechanical allodynia [3, 12]: sustained
- Efficacy: rescue of thermal hyperalgesia behavior as measured by paw withdrawal latency [4, 5]: NS
- Efficacy: rescue of thermal hyperalgesia behavior as measured by paw withdrawal latency [4, 6]: + (+ indicates p < 0.05 vs DNP control.)
- Efficacy: rescue of thermal hyperalgesia behavior as measured by paw withdrawal latency [4, 7]: +++ (+++ indicates p < 0.001 vs DNP control.)
- Efficacy: rescue of thermal hyperalgesia behavior as measured by paw withdrawal latency [4, 8]: NS
- Efficacy: rescue of thermal hyperalgesia behavior as measured by paw withdrawal latency [4, 9]: + (+ indicates p < 0.05 vs DNP control.)
- Efficacy: rescue of thermal hyperalgesia behavior as measured by paw withdrawal latency [4, 10]: +++ (+++ indicates p < 0.001 vs DNP control.)
- reversal of the increase in pain-related behaviors, thermal allodynia [4, 11]: effectively reversed
- persistence of pain-reducing effects, thermal allodynia [4, 12]: sustained
